Laboratory results taken from ChEMBL document CHEMBL1759873, “Novel thiolactone-isatin hybrids as potential antimalarial and antitubercular agents” (Bioorg Med Chem Lett, 2011).
In brackets after ≈: the same amount, converted by molar mass.

Assays:
Plasmodium falciparum = experiment: Antiplasmodial activity against Plasmodium falciparum W2; type: functional, organism-based
[1] = Inhibition of Plasmodium falciparum W2 recombinant falcipain-2
[2] = system: Mycobacterium tuberculosis; experiment: Antitubercular activity against Mycobacterium tuberculosis H37Rv by LORA assay; type: functional
[3] = system: Mycobacterium tuberculosis; experiment: Antitubercular activity against Mycobacterium tuberculosis H37Rv by microplate alamar blue assay; type: functional
[4] = system: Mycobacterium tuberculosis; experiment: Antitubercular activity against Mycobacterium tuberculosis H37Rv at 10 ug/ml by BACTEC radiometric susceptibility assay; type: functional
[5] = system: Mycobacterium tuberculosis; experiment: Antitubercular activity against Mycobacterium tuberculosis H37Rv at 1 ug/ml by BACTEC radiometric susceptibility assay; type: functional

Row | Structure (SMILES) | IC50 (Plasmodium falciparum) [µM] | IC50 [1] [µM] | MIC [2] [µM] | MIC [3] [µM] | inhibition at 10 µg/mL [4] [%] | inhibition at 1 µg/mL [5] [%]
1 | O=C1C(=O)N(CCCCBr)c2ccc(I)cc21 | > 20 | > 100 | 57.1 (≈ 23.3 µg/mL) | 15.5 (≈ 6.32 µg/mL) | – | –
2 | CC1=C(OCCN2C(=O)C(=O)c3cc(Br)ccc32)C(C)SC1=O (stereo not given) | 17.4 | 31.7 | – | – | – | –
3 | CC1=C(OCCN2C(=O)C(=O)c3cc(Cl)ccc32)C(C)SC1=O (stereo not given) | > 20 | 47.8 | 117 (≈ 41.2 µg/mL) | 63.7 (≈ 22.4 µg/mL) | 9.9 | -2.8
4 | CC1=C(OCCN2C(=O)C(=O)c3cc(F)ccc32)C(C)SC1=O (stereo not given) | > 20 | 89.6 | – | > 128 | 22 | -29
5 | CC1=C(OCCN2C(=O)C(=O)c3cc(I)ccc32)C(C)SC1=O (stereo not given) | > 20 | 17.8 | – | > 128 | 42 | -3.2
6 | CC1=C(OCCN2C(=O)C(=O)c3cc(C)ccc32)C(C)SC1=O (stereo not given) | > 20 | > 100 | – | > 128 | 4 | -12
7 | CC1=C(OCCN2C(=O)C(=O)c3ccccc32)C(C)SC1=O (stereo not given) | > 20 | 40.2 | – | > 128 | 34.7 | 31.7
8 | CC1=C(OCCCN2C(=O)C(=O)c3ccccc32)C(C)SC1=O (stereo not given) | > 20 | > 100 | – | > 128 | 14.9 | -18.5
9 | CC1=C(OCCCCN2C(=O)C(=O)c3ccccc32)C(C)SC1=O (stereo not given) | > 20 | > 100 | – | > 128 | 42.6 | 33.4
10 | CC1=C(OCCCCCN2C(=O)C(=O)c3ccccc32)C(C)SC1=O (stereo not given) | 15.3 | 58 | – | > 128 | 34 | 34.9
11 | CC1=C(OCCCCCCN2C(=O)C(=O)c3ccccc32)C(C)SC1=O (stereo not given) | 12.3 | 32 | – | > 128 | 36.4 | 27.7
12 | CC1=C2OCCCCN3C(=O)C(O)(c4ccccc43)C2(C)SC1=O (stereo not given) | > 20 | > 100 | – | > 128 | 18.1 | 17
13 | CC1=C2OCCCCN3C(=O)C(O)(c4cc(Br)ccc43)C2(C)SC1=O (stereo not given) | > 20 | > 100 | – | > 128 | 5.1 | -16.2
14 | CC1=C2OCCCCN3C(=O)C(O)(c4cc(I)ccc43)C2(C)SC1=O (stereo not given) | > 20 | > 100 | – | > 128 | 19.6 | 4.9
15 | CC1=C2OCCCCN3C(=O)C(O)(c4cc(F)ccc43)C2(C)SC1=O (stereo not given) | > 20 | > 100 | – | > 128 | 1.3 | 4.9
16 | CC1=C2OCCCCN3C(=O)C(O)(c4cc(Cl)ccc43)C2(C)SC1=O (stereo not given) | > 20 | > 100 | – | > 128 | 15.3 | 13.4
17 | CC1=C2OCCCCN3C(=O)C(O)(c4cc(C)ccc43)C2(C)SC1=O (stereo not given) | > 20 | > 100 | – | > 128 | -0.4 | -0.6
18 | CC1=C2OCCCCN3C(=O)C(O)(c4cc([N+](=O)[O-])ccc43)C2(C)SC1=O (stereo not given) | > 20 | 44.5 | – | > 128 | -5.1 | -3
19 | CC1=C2OCCCCCN3C(=O)C(O)(c4ccccc43)C2(C)SC1=O (stereo not given) | > 20 | > 100 | – | > 128 | 32.6 | 21.9
20 | CC1=C2OCCCCCN3C(=O)C(O)(c4cc(Cl)ccc43)C2(C)SC1=O (stereo not given) | > 20 | > 100 | – | > 128 | -15.2 | 0
21 | CC1=C2OCCCCCN3C(=O)C(O)(c4cc(Br)ccc43)C2(C)SC1=O (stereo not given) | > 20 | 10.1 | – | > 128 | -21.1 | -26
22 | CC1=C2OCCCCCN3C(=O)C(O)(c4cc(I)ccc43)C2(C)SC1=O (stereo not given) | > 20 | > 100 | – | > 128 | -40.7 | -39.7
23 | CC1=C2OCCCCCCN3C(=O)C(O)(c4ccccc43)C2(C)SC1=O (stereo not given) | 11.5 | > 100 | – | > 128 | 18.5 | 9.4
24 | CC1=C2OCCCCCCN3C(=O)C(O)(c4cc(Cl)ccc43)C2(C)SC1=O (stereo not given) | 7.41 | > 100 | – | > 128 | -20 | -16

Row | Structure (SMILES) | IC50 (Plasmodium falciparum) [µM] | IC50 [1] [µM] | MIC [2] [µM] | MIC [3] [µM] | inhibition at 10 µg/mL [4] [%] | inhibition at 1 µg/mL [5] [%]
25 | CC1=C2OCCCCCCN3C(=O)C(O)(c4cc(F)ccc43)C2(C)SC1=O (stereo not given) | 14 | > 100 | – | > 128 | -28 | -35
26 | CC1=C2OCCCCCCN3C(=O)C(O)(c4cc(Br)ccc43)C2(C)SC1=O (stereo not given) | 6.93 | 83.4 | – | > 128 | -0.5 | 8.1
27 | CC1=C2OCCCCCCN3C(=O)C(O)(c4cc(I)ccc43)C2(C)SC1=O (stereo not given) | 6.92 | 48.3 | – | > 128 | -40 | -34
28 | O=C1C(=O)N(CCCBr)c2ccccc21 | > 20 | > 100 | – | > 128 | – | –
29 | O=C1C(=O)N(CCCCBr)c2ccccc21 | > 20 | > 100 | 28.8 (≈ 8.13 µg/mL) | 96.5 (≈ 27.2 µg/mL) | – | –
30 | O=C1C(=O)N(CCCCBr)c2ccc(Cl)cc21 | > 20 | > 100 | 30.5 (≈ 9.66 µg/mL) | 30.5 (≈ 9.66 µg/mL) | – | –
31 | O=C1C(=O)N(CCCCBr)c2ccc(Br)cc21 | > 20 | > 100 | 37.7 (≈ 13.6 µg/mL) | 30.5 (≈ 11 µg/mL) | – | –
32 | O=C1C(=O)N(CCCCBr)c2ccc(F)cc21 | > 20 | > 100 | 53.3 (≈ 16 µg/mL) | 123 (≈ 36.9 µg/mL) | – | –
33 | Cc1ccc2c(c1)C(=O)C(=O)N2CCCCBr | > 20 | > 100 | 53.2 (≈ 15.8 µg/mL) | 62.7 (≈ 18.6 µg/mL) | – | –
34 | O=C1C(=O)N(CCCCBr)c2ccc([N+](=O)[O-])cc21 | > 20 | > 100 | – | > 128 | – | –
35 | O=C1C(=O)N(CCCCCBr)c2ccccc21 | > 20 | > 100 | 44.4 (≈ 13.1 µg/mL) | 23.2 (≈ 6.87 µg/mL) | 34.8 | -22.1
36 | O=C1C(=O)N(CCCCCCBr)c2ccccc21 | > 20 | > 100 | 108 (≈ 33.5 µg/mL) | 97.6 (≈ 30.3 µg/mL) | – | –
37 | O=C1C(=O)N(CCCCCCBr)c2ccc(Cl)cc21 | – | – | 31 (≈ 10.7 µg/mL) | 29.7 (≈ 10.2 µg/mL) | – | –
38 | O=C1C(=O)N(CCCCCCBr)c2ccc(F)cc21 | – | – | 31.5 (≈ 10.3 µg/mL) | 62.3 (≈ 20.4 µg/mL) | – | –
39 | O=C1C(=O)N(CCBr)c2ccccc21 | > 20 | > 100 | – | > 128 | – | –
40 | CC(C)C[C@H](NC(=O)[C@H]1O[C@@H]1C(=O)O)C(=O)NCCCCN=C(N)N [E-64] | – | 0.0473 | – | – | – | –
41 | NNC(=O)c1ccncc1 [ISONIAZID] | – | – | > 128 | 0.37 (≈ 0.0507 µg/mL) | – | –
42 | COc1c(N2C[C@@H]3CCCN[C@@H]3C2)c(F)cc2c(=O)c(C(=O)O)cn(C3CC3)c12 [MOXIFLOXACIN] | – | – | 31.1 (≈ 12.5 µg/mL) | 0.29 (≈ 0.116 µg/mL) | – | –
43 | O=[N+]([O-])c1cn2c(n1)OC[C@@H](OCc1ccc(OC(F)(F)F)cc1)C2 [PRETOMANID] | – | – | 3.3 (≈ 1.19 µg/mL) | 0.16 (≈ 0.0575 µg/mL) | – | –
44 | CO[C@H]1/C=C/O[C@@]2(C)Oc3c(C)c(O)c4c(O)c(c(/C=N/N5CCN(C)CC5)c(O)c4c3C2=O)NC(=O)/C(C)=C\C=C\[C@H](C)[C@H](O)[C@@H](C)[C@@H](O)[C@@H](C)[C@H](OC(C)=O)[C@@H]1C [RIFAMPIN] | – | – | 2.4 (≈ 1.98 µg/mL) | 0.05 (≈ 0.0411 µg/mL) | – | –
45 | CN[C@@H]1[C@H](O[C@H]2[C@H](O[C@H]3[C@H](O)[C@@H](O)[C@H](N=C(N)N)[C@@H](O)[C@@H]3N=C(N)N)O[C@@H](C)[C@]2(O)C=O)O[C@@H](CO)[C@H](O)[C@H]1O [STREPTOMYCIN] | – | – | – | 0.43 (≈ 0.25 µg/mL) | – | –
46 | C=C/C(C)=C/[C@@]1(C)SC(=O)C(C)=C1O [THIOLACTOMYCIN] | > 20 | > 100 | – | > 128 | 58.6 | -3.8
47 | CC1=C(O)SC(C)C1=O (stereo not given) [THIOLACTONE] | > 20 | > 100 | – | > 128 | -32.8 | -24.5
